Data published in US7833331B2, “Non-toxic corrosion-protection pigments based on cobalt” (University of Dayton, priority 2007, dated 2010).
Values joined by “and” are separate entries in the source; they are usually repeats but may differ in a detail not shown here. Equal entries are not always repeated. “Also recorded” adds a separate entry of the source. Where two headings read alike, the source gives them in different places.

Experiments:
[1] = ASTM B-117 static salt fog test of PVB wash primer with pigment, rated by ASTM D-1654; conditions: ASTM D-1654 rating; for 2024-T3 B-117 Proc. A / 7075-T6 B-117 Proc. A: failure at scribe; for 2024-T3 B-117 Proc. B / 7075-T6 B-117 Proc. B: failure in unscribed areas
Procedure: (§1) The corrosion inhibiting performance of CoIII pigments was evaluated by incorporating them into primer paint formulations. The acid wash primer paint formulations called out in DoD-P-15328 [Primer (Wash), Pretreatment (Formulation No. 117 for Metals)] were used to test the various pigments. The wash primer is composed of a resin, an acid, a corrosion inhibiting pigment, powdered talc, and carbon lampblack. The acid content of this wash primer provides a rigorous initial test of the stability and performance of the pigments. Other, more benign, polymer-based binder and resin systems might not separate the compounds based on their performance as effectively or as rapidly. The base solution for the wash primer in this specification was prepared by mixing 88.3 grams of isopropanol, 31.3 grams of n-butanol, and 3.8 grams of deionized water with 14 grams of poly(vinyl butyral) resin (PVB) (Monsanto Butvar B-90TM). PVB was used exclusively throughout testing to avoid preparation and compositional complications during analysis of pigment performance. However, the invention is not limited to the use of PVB. Acid diluent was prepared by mixing 70 grams of 85% phosphoric acid, 63 grams of deionized water, and 247 grams of isopropanol. Finely-ground pigment powder was measured out and added to 13.74 grams of the base solution for each paint to be tested. A small amount (0.2 g) of powdered talc (magnesium silicate) “filler” was added. Lampblack was not added to these samples. These components were mixed thoroughly by hand and 3.8 g of phosphoric acid diluent added with further mixing. This rough processing allowed direct comparisons of pigment performance to be made without complications due to powder treatments, modifications, and additives. […] This is not the conventional paint application procedure for aluminum alloys. Under normal service conditions, aluminum alloys are first subjected to a hexavalent chromium-containing conversion coating prior to primer application. However, the conversion coating was omitted so that the performance of the pigment alone could be evaluated and not the synergistic effects of hexavalent chromium (in the conversion coating) or even of barrier films (in the phosphate or anodized coatings). Multiple samples of specific pigment compositions were prepared and tested. […] The chromate pigments were prepared identically to those used to test CoIII composition variations. PVB wash primers containing various pigment formulations were evaluated by exposing them to static salt fog (ASTM B-117) and cyclic Prohesiomm (ASTM G-85.5) accelerated corrosion tests. ASTM B-117 is a traditional corrosion “proof” test that has little relation to a real working environment. This accelerated corrosion test exposes samples to a constant salt-water fog and is a de facto test of solubility for corrosion inhibitors. […] This is particularly true of inhibitors and compounds that have not been fully optimized with respect to solubility. ASTM G-85.5 (ProhesionTM) is a cyclic corrosion test that more closely resembles real working environments. This accelerated corrosion test exposes samples to a cycle of fog of dilute salt and ammonium sulfate at room temperature followed by forced-air drying at an elevated temperature. This is a more realistic test of the ability of a compound to inhibit corrosion. Results of these tests can be combined to gain insight into how a particular coating or compound will perform relative to a standard as well as helping identify strengths and weaknesses in the performance of the material. ASTM D-1654 evaluation standard for painted or coated specimens subjected to corrosive environments was used to evaluate the performance of the coatings. After the paint dried for 24 hours, each plate was scribed with an X and the plate edges were sealed with PVC tape to eliminate corrosion edge effects. Two visual observations are associated with this rating test. […]

[2] = ASTM G-85.5 cyclic Prohesion test of PVB wash primer with pigment, rated by ASTM D-1654; conditions: ASTM D-1654 rating; for 2024-T3 G-85 Proc. A / 7075-T6 G-85 Proc. A: failure at scribe; for 2024-T3 G-85 Proc. B / 7075-T6 G-85 Proc. B: failure in unscribed areas
Procedure: as §1

[3] = Accelerated corrosion testing (both ASTM B-117 and G-85.5) of PVB wash primers, overall observation
Procedure: The corrosion inhibiting performance of CoIII pigments was evaluated by incorporating them into primer paint formulations. […] The wash primer is composed of a resin, an acid, a corrosion inhibiting pigment, powdered talc, and carbon lampblack. The acid content of this wash primer provides a rigorous initial test of the stability and performance of the pigments. Other, more benign, polymer-based binder and resin systems might not separate the compounds based on their performance as effectively or as rapidly.
PVB was used exclusively throughout testing to avoid preparation and compositional complications during analysis of pigment performance. However, the invention is not limited to the use of PVB.
A small amount (0.2 g) of powdered talc (magnesium silicate) “filler” was added. Lampblack was not added to these samples. These components were mixed thoroughly by hand and 3.8 g of phosphoric acid diluent added with further mixing. This rough processing allowed direct comparisons of pigment performance to be made without complications due to powder treatments, modifications, and additives.
This is not the conventional paint application procedure for aluminum alloys. Under normal service conditions, aluminum alloys are first subjected to a hexavalent chromium-containing conversion coating prior to primer application. However, the conversion coating was omitted so that the performance of the pigment alone could be evaluated and not the synergistic effects of hexavalent chromium (in the conversion coating) or even of barrier films (in the phosphate or anodized coatings).
This accelerated corrosion test exposes samples to a constant salt-water fog and is a de facto test of solubility for corrosion inhibitors. […] This accelerated corrosion test exposes samples to a cycle of fog of dilute salt and ammonium sulfate at room temperature followed by forced-air drying at an elevated temperature.
Chromate pigments were precipitated from aqueous synthesis solutions and incorporated into PVB wash primer formulations so that each primer sample had the same molar quantity of hexavalent chromium. […] After the samples had dried for 24 hours, they were scribed and the edges of each sample taped to eliminate edge effects.
Wash primer coatings containing these pigments were prepared wherein the trivalent cobalt was present in identical molar concentrations from sample to sample. […] Pigments were made with chloride, bromide, sulfate, hexafluorosilicate, phosphate, molybdate, tungstate, and phosphomolybdate anions. Additionally, […] was also used as a pigment for this application.

[4] = 144 hours, inhibitor conc. 1.49 × 10^−3 M (20% of Cr)
[5] = 135 hours of both ASTM B-117 and G-85.5, identical molar concentrations of trivalent cobalt, 2024-T3 and 7075-T6
[6] = 139 hours, inhibitor conc. 7.44 × 10^−4 M (10% of Cr)
[7] = 139 hours, inhibitor conc. 1.49 × 10^−3 M (20% of Cr)
[8] = 117 hours, inhibitor conc. 1.49 × 10^−3 M (20% of Cr)

Molecule: magnesium 10-molybdocobaltate
- 2024-T3 B-117 Proc. A [1, 4]: 7
- 7075-T6 B-117 Proc. A [1, 4]: 7
- 2024-T3 B-117 Proc. B [1, 4]: 6
- 7075-T6 B-117 Proc. B [1, 4]: 6
- 2024-T3 G-85 Proc. A [2, 4]: 9 and 8
- 7075-T6 G-85 Proc. A [2, 4]: 9
- 2024-T3 G-85 Proc. B [2, 4]: 8 and 7
- 7075-T6 G-85 Proc. B [2, 4]: 7 and 8

Molecule: F[Si-2](F)(F)(F)(F)F.F[Si-2](F)(F)(F)(F)F.F[Si-2](F)(F)(F)(F)F.N.N.N.N.N.N.N.N.N.N.N.N.[Co+3].[Co+3] [hexaaminecobalt(III) hexafluorosilicate]
- corrosion resistance of trivalent cobalt pigments in PVB wash primer [3, 5]: performed the best of all

Molecule: [O]=[Co][O][Co]=[O] [CO2O3, Co2O3, reference compound]
- corrosion resistance of trivalent cobalt pigments in PVB wash primer [3, 5]: no discernable corrosion resistance at all

Molecule: N.N.N.N.N.N.N.N.N.N.N.N.[Co+3].[Co+3].[O]=[Mo](=[O])([O-])[O-].[O]=[Mo](=[O])([O-])[O-].[O]=[Mo](=[O])([O-])[O-] [hexaaminecobalt(III) molybdate]
- corrosion resistance of trivalent cobalt pigments in PVB wash primer [3]: a small amount of corrosion resistance; also recorded: performed the best of these three pigment compounds

Molecule: barium 11-tungstophosphocobaltate
- 2024-T3 B-117 Proc. A [1, 6]: 7
- 7075-T6 B-117 Proc. A [1, 6]: 7
- 2024-T3 B-117 Proc. B [1, 6]: 6
- 7075-T6 B-117 Proc. B [1, 6]: 6
- 2024-T3 G-85 Proc. A [2, 6]: 7
- 7075-T6 G-85 Proc. A [2, 6]: 7
- 2024-T3 G-85 Proc. B [2, 6]: 7 and 6
- 7075-T6 G-85 Proc. B [2, 6]: 6

Molecule: magnesium 10-vanadatocobaltate
- 2024-T3 B-117 Proc. A [1, 7]: 7 and 6
- 7075-T6 B-117 Proc. A [1, 7]: 7
- 2024-T3 B-117 Proc. B [1, 7]: 7
- 7075-T6 B-117 Proc. B [1, 7]: 7
- 2024-T3 G-85 Proc. A [2, 7]: 8 and 9
- 7075-T6 G-85 Proc. A [2, 7]: 8 and 9
- 2024-T3 G-85 Proc. B [2, 7]: 7 and 8
- 7075-T6 G-85 Proc. B [2, 7]: 7 and 8

Molecule: N.N.N.N.N.N.[Cl-].[Cl-].[Cl-].[Co+3] [hexaaminecobalt(III) chloride]
- corrosion resistance of trivalent cobalt pigments in PVB wash primer [3]: performed very well in the early stages of the test and then failed as the test progressed

Molecule: calcium 6-molybdocobaltate
- 2024-T3 B-117 Proc. A [1, 8]: 7 and 6
- 7075-T6 B-117 Proc. A [1, 8]: 7
- 2024-T3 B-117 Proc. B [1, 8]: 5 and 6
- 7075-T6 B-117 Proc. B [1, 8]: 6
- 2024-T3 G-85 Proc. A [2, 8]: 8
- 7075-T6 G-85 Proc. A [2, 8]: 8
- 2024-T3 G-85 Proc. B [2, 8]: 7
- 7075-T6 G-85 Proc. B [2, 8]: 8

Molecule: hexaaminecobalt(III) phosphomolybdate
- corrosion resistance of trivalent cobalt pigments in PVB wash primer [3, 5]: a small amount of corrosion resistance; also recorded: performed the worst
